Read-outs that look alike come from different tables or passages of the source.
Experiments:
[1] = test system: human leukemia HL-60 cells; assay: In vitro cytotoxicity, growth inhibition of human leukemia HL-60 cells; type: cell-based
[2] = test system: mouse leukemia L1210 cells; assay: In vitro cytotoxicity, growth inhibition of mouse leukemia L1210 cells; type: cell-based
[3] = Lethal doses to BDF^1 mice; type: in vivo; conditions: i.p.
Text: ^b Lethal Doses of these compounds to BDF^1 mice have been

[4] = test system: L1210 tumor; assay: Chemotherapeutic effects on L1210 tumor bearing BDF^1 mice; type: in vivo, mouse; conditions: day 1, QD × 4 + Day 7, QD × 2; for % Increase in lifespan: 25% or greater indicates therapeutic activity; for Average survival time: control 7.2 days
Text: Table 2 lists typical examples of chemotherapeutic effects of 3-(9-acridinylamino)-5-hydroxymethylaniline derivatives of formula I on L1210 tumor bearing BDF^1 mice in vivo.
^a Female mice, 19-21 grams, inoculated with 10^6 L1210 cells i.p
treatment schedule was day 1, QD × 4 + Day 7, QD × 2, i.p.

[5] = test system: topoisomerase II; conditions: Nelson et al. 1984; Pommier et al. 1985; cited from earlier work
[6] = 37° C.; cited from earlier work
[7] = test system: DNA; conditions: Nelson et al. 1984; Pommier et al. 1985; cited from earlier work
[8] = test system: DNA; conditions: Wilson et al. 1984; cited from earlier work
[9] = test system: L1210 leukemia; conditions: Cain et al., J. Med. Chem. 1975; cited from earlier work
[10] = test system: experimental tumors; conditions: Corbett et al. 1977; Goldin et al. 1981; cited from earlier work
[11] = test system: solid tumors; conditions: Casper et al. 1980; cited from earlier work
[12] = human leukemia HL-60, read-out: IC50 for Cell growth Inhibition, HL60
[13] = mouse leukemia L1210, read-out: IC50 for Cell growth Inhibition, L1210

| Structure (SMILES) | IC50 [1, 12] | IC50 [2, 13] | % Increase in lifespan ([4]; 5 mg/kg i.p.) | Average weight change, Day 7 ([4]; 5 mg/kg i.p.) | Average survival time ([4]; 5 mg/kg i.p.) | % Increase in lifespan ([4]; 10 mg/kg i.p.) | Average weight change, Day 7 ([4]; 10 mg/kg i.p.) | Average survival time ([4]; 10 mg/kg i.p.) | Lethal dose to BDF^1 mice ([3]; QD Day 1-Day 4, Day 7-Day 8) | % Increase in lifespan ([4]; 20 mg/kg i.p.) | Average weight change, Day 7 ([4]; 20 mg/kg i.p.) | Average weight change, Day 11 ([4]; 20 mg/kg i.p.) | Average survival time ([4]; 20 mg/kg i.p.) | other results |
| --- | --- | --- | --- | --- | --- | --- | --- | --- | --- | --- | --- | --- | --- | --- |
| O=C(O)CCC(=O)Nc1cc(CO)cc(Nc2c3ccccc3nc3ccccc23)c1 [Ie, 3-(9-acridinylamino)-5-hydroxymethyl-N-succinylaniline] | 999 nM | 1070 nM |  |  |  |  |  |  |  |  |  |  |  |  |
| Nc1cc(CO)cc(Nc2c3ccccc3nc3ccccc23)c1 [Ia, 3-(9-acridinylamino)-5-hydroxymethylaniline] | 97 nM | 26 nM | 94% | +1.0 grams | 14.0 days | 108% | -0.5 grams | 15.0 days |  |  |  |  |  | Lethal dose to BDF^1 mice ([3]; QD Day 1-Day 4 + Day 7): 20 mg/kg; Average weight change, Day 11 ([4]; 5 mg/kg i.p.): +2.0 grams; Average weight change, Day 11 ([4]; 10 mg/kg i.p.): +0.0 grams |
| O=C(O)CCC(=O)Nc1cc(COC(=O)CCC(=O)O)cc(Nc2c3ccccc3nc3ccccc23)c1 [Id, 3-(9-acridinylamino)-5-succinyloxymethyl-N-succinylaniline] | 859 nM | 2000 nM |  |  |  |  |  |  |  |  |  |  |  |  |
| COc1cc(NS(C)(=O)=O)ccc1Nc1c2ccccc2nc2ccccc12 [m-AMSA, 4'-(9-acridinylamino)methanesulfon-m-anisidide] |  |  |  |  |  |  |  |  |  |  |  |  |  | IC50 ([1]; Homo sapiens, HL-60, read-out: IC50 for Cell growth Inhibition, HL60): 80 nM; topoisomerase II inhibition [5]: topoisomerase II inhibitor; half life in the presence of fresh mouse blood [6]: about 23 minutes; IC50 ([2]; Mus musculus, L1210, read-out: IC50 for Cell growth Inhibition, L1210): 4 nM; DNA intercalation [7]: DNA intercalator; chromosomal aberrations and DNA damage [8]: induced chromosomal aberrations and DNA damage; activity against the L1210 leukemia [9]: high activity; activity against a spectrum of experimental tumors [10]: high activity; activity against a number of solid tumors during Phase II trials [11]: inactive |
| CC(=O)CCC(=O)Nc1cc(COC(=O)CCC(C)=O)cc(Nc2c3ccccc3nc3ccccc23)c1 [Ib, 3-(9-acridinylamino)-N,O-bis(acetonylacetyl)-5-hydroxymethylaniline] | 3 nM | 98 nM | 25% | +2.0 grams | 9.0 days | 53% | +2.0 grams | 11.0 days | 50 mg/kg | 94% | -3.0 grams | -4.0 grams | 14.0 days |  |
| CC(=O)CCC(=O)Nc1cc(CO)cc(Nc2c3ccccc3nc3ccccc23)c1 [Ic, 3-(9-acridinylamino)-5-hydroxymethyl-N-acetonylacetylaniline] | 5 nM | 73 nM | 53% | +2.0 grams | 11.0 days | 25% | +1.5 grams | 9.0 days | 50 mg/kg | 192% | -1.5 grams | -2.0 grams | 21.0 days |  |
